Test results from patent publication US20240299314A1 (priority 2023, published 2024).

Assay: PTX release by dialysis bag diffusion technique (HPLC)
Format: physicochemical
Details: 1:9 DMSO:PBS solution
Description: where mo (mg) is the initial amount of PTX used; mr (mg) is the residual amount of PTX in the loading solution; mNPs (g) is the […] used in the loading experiment. A dialysis bag diffusion technique was used for examining drug release behaviors. Briefly, PTX@NPs were dispersed in 1 mL of release solution (DMSO: PBS 1:9 v/v) and transferred to a dialysis bag (molecular weight cut off=14 kDa) and shaken in 5 mL of release solution at 37° C. At the predetermined time intervals, 200 μL of the solution was withdrawn and the same amount of fresh solution was added into the system. The released PTX content from PTX@NPs was determined by HPLC analysis. HPLC analyses were recorded on Agilent Technologies 1200 Series with ZORBAX SB-C18 column (Agilent, 5 μm, 4.6×250 mm). The mobile phase was water:acetonitrile (50:50 v/v). The separation was carried out at 30° C. The detection wavelength was 227 nm and a flow rate of 1.0 mL·min^−1 was employed. A sample volume of 20 μL was injected. Free PTX was used as a control to compare with PTX@NPs.

CC(=O)O[C@H]1C(=O)[C@@]2(C)[C@H]([C@H](OC(=O)c3ccccc3)[C@]3(O)C[C@H](OC(=O)[C@H](O)[C@@H](NC(=O)c4ccccc4)c4ccccc4)C(C)=C1C3(C)C)[C@]1(OC(C)=O)CO[C@@H]1C[C@@H]2O [free PTX, paclitaxel]
PTX released at the early stage of the release (37° C., dialysis bag): ~15% | release behavior (after the early stage): short-term release
